Values after ≈ are worked out from the molar mass of the structure shown. Non-standard residues stand in square brackets, D forms with d. Residues, ends and D or L forms follow the SMILES beside them.
Legend:
Vibrio scophthalmi [1] = assay type: cell-based; conditions: 48 h
Outline: (§1)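 MIC was recorded visually after 48 hours as the lowest peptide level with no growth, from duplicate broth microdilutions at 25 °C. Peptides spanned 0.125 - 65µg mL^-1 against roughly 5 × 10^5 CFU mL^-1 in MHB with artificial sea salts (25‰) or without (0‰).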

Shewanella sp. [2] = assay type: cell-based; conditions: 48 h
Outline: as §1

Vibrio harveyi [3] = assay type: cell-based; conditions: 48 h
Outline: as §1

Vibrio rotiferianus [4] = assay type: cell-based; conditions: 48 h
Outline: as §1

Vibrio alginolyticus [5] = assay type: cell-based; conditions: 48 h
Outline: as §1

[6] = system: Escherichia coli (ATCC 25922); assay type: cell-based; conditions: ATCC 25922, 48 h
Outline: as §1

[7] = system: Vibrio harveyi (ATCC 35084); assay type: cell-based; conditions: ATCC 35084, 48 h
Outline: as §1

[8] = system: MRSA and P. aeruginosa bacterial infections; conditions: MRSA and P. aeruginosa infections in mice and nematodes, respectively; ref [23], [64], [65]; cited from earlier work
Experimental: The MIC assay under high salt concentration identified these peptides as being effective against V. rotiferianus and T. discolor at a high peptide concentration (65 µg mL^−1), however, the two bacterial species were not identified in the control rotifer culture, and the reduction of their presence cannot be quantified. In relation to other AMP research, the majority of AMPs are currently teste ...

Vibrio scophthalmi [9] = assay type: cell-based; conditions: 48 h; remark: listed apart in the source
Outline: (§2)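 Broth microdilution MIC of peptides in Mueller-Hinton broth (MHB) at 0‰ and 25‰ artificial-seawater salinity, twofold dilutions over 0.125–65 µg mL^−1, inoculum ~5 × 10^5 CFU mL^−1 from 0.5 McFarland suspensions. T. discolor and Pseudoalteromonas sp. were not tested at 0‰. T. discolor was tested in diluted MHB (1:7 in 25‰ seawater).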

Shewanella sp. [10] = assay type: cell-based; conditions: 48 h; remark: listed apart in the source
Outline: as §2

Vibrio harveyi [11] = assay type: cell-based; conditions: 48 h; remark: listed apart in the source
Outline: as §2

Vibrio rotiferianus [12] = assay type: cell-based; conditions: 48 h; remark: listed apart in the source
Outline: as §2

Vibrio alginolyticus [13] = assay type: cell-based; conditions: 48 h; remark: listed apart in the source
Outline: as §2

[14] = system: Escherichia coli (ATCC 25922); assay type: cell-based; conditions: ATCC 25922, 48 h; remark: listed apart in the source
Outline: as §2

Pseudoalteromonas sp. = assay type: cell-based; conditions: 48 h
Outline: as §2

Tenacibaculum discolor = assay type: cell-based; conditions: 48 h
Outline: as §2

[15] = system: Vibrio harveyi (ATCC 35084); assay type: cell-based; conditions: ATCC 35084, 48 h; remark: listed apart in the source
Outline: as §2

[16] = Test whether the AMPs precipitated in MHB and required acetic acid adjustments; assay type: physicochemical; conditions: MIC two or more dilutions higher without acetic acid than with acetic acid = requires acetic acid adjustments; MHB 0‰
Experimental: The protocol was followed to determine the minimum inhibitory concentration (MIC) of the selected peptides. Two MIC assays were performed, firstly to determine whether each peptide precipitated in MHB and thereby required acetic acid adjustments (supplementary materials) and secondly, to determine the antimicrobial activity of each peptide in artificial seawater (25‰). Peptide stock solutions (1.3 mg mL^−1) were made by diluting the peptides in sterile deionised water. MHB was made with deionised water to reach a concentration of approaching 0‰ and artificial sea salts (Sigma-Aldrich® S9883) to reach a salinity of 25‰.
A broth microdilution protocol was followed to test whether the AMPs precipitated in MHB. The isolates T. discolor and Pseudoalteromonas were excluded from this assay because they required marine salts for growth. The peptides HHC10 and HHC36 previously required acetic acid adjustments according to [63] and were not trialled in this assay. To test if peptides required acetic acid, each peptide was diluted 1:2 in acetic acid (0.02% acetic acid w/v, containing 0.4% BSA) solution. […] The 96-well plates were incubated at 25 °C and read at 24 and 48 hours. The MIC was visually determined using a Sensititre™ Vizion™ Digital MIC Viewing System (Thermo Scientific™), and the lowest AMP concentration that had no bacterial growth was recorded as the MIC after 48 hours. […]

- MIC V. scophthalmi, Acetic (Vibrio scophthalmi [1]): 0.51 µg/mL (≈ 0.329 µM)
- MIC V. scophthalmi, No acetic (Vibrio scophthalmi [1]): 0.51 µg/mL (≈ 0.329 µM)
- MIC Shewanella sp., Acetic (Shewanella sp. [2]): 1.02 µg/mL (≈ 0.658 µM)
- MIC Shewanella sp., No acetic (Shewanella sp. [2]): 1.02 µg/mL (≈ 0.658 µM)
- MIC V. harveyi, Acetic (Vibrio harveyi [3]): 2.03 µg/mL (≈ 1.31 µM)
- MIC V. harveyi, No acetic (Vibrio harveyi [3]): 4.06 µg/mL (≈ 2.62 µM)
- MIC V. rotiferianus, Acetic (Vibrio rotiferianus [4]): 1.02 µg/mL (≈ 0.658 µM)
- MIC V. rotiferianus, No acetic (Vibrio rotiferianus [4]): 1.02 µg/mL (≈ 0.658 µM)
- MIC V. alginolyticus, Acetic (Vibrio alginolyticus [5]): 4.06 µg/mL (≈ 2.62 µM)
- MIC V. alginolyticus, No acetic (Vibrio alginolyticus [5]): 4.06 µg/mL (≈ 2.62 µM)
- MIC E. coli ATCC 25922, Acetic [6]: 4.06 µg/mL (≈ 2.62 µM)
- MIC E. coli ATCC 25922, No acetic [6]: 8.13 µg/mL (≈ 5.24 µM)
- MIC V. harveyi ATCC 35084, Acetic [7]: 4.06 µg/mL (≈ 2.62 µM)
- MIC V. harveyi ATCC 35084, No acetic [7]: 2.03 µg/mL (≈ 1.31 µM)
- MIC V. scophthalmi, salinity 0‰ (Vibrio scophthalmi [9]): 0.51 µg/mL (≈ 0.329 µM)
- MIC V. scophthalmi, salinity 25‰ (Vibrio scophthalmi [9]): > 65 µg/mL
- MIC Shewanella sp., salinity 0‰ (Shewanella sp. [10]): 2.03 µg/mL (≈ 1.31 µM)
- MIC Shewanella sp., salinity 25‰ (Shewanella sp. [10]): > 65 µg/mL
- MIC V. harveyi, salinity 0‰ (Vibrio harveyi [11]): 4.06 µg/mL (≈ 2.62 µM)
- MIC V. harveyi, salinity 25‰ (Vibrio harveyi [11]): > 65 µg/mL
- MIC V. rotiferianus, salinity 0‰ (Vibrio rotiferianus [12]): 1.02 µg/mL (≈ 0.658 µM)
- MIC V. rotiferianus, salinity 25‰ (Vibrio rotiferianus [12]): > 65 µg/mL
- MIC V. alginolyticus, salinity 0‰ (Vibrio alginolyticus [13]): 4.06 µg/mL (≈ 2.62 µM)
- MIC V. alginolyticus, salinity 25‰ (Vibrio alginolyticus [13]): > 65 µg/mL
- MIC E. coli ATCC 25922, salinity 0‰ [14]: 2.03 µg/mL (≈ 1.31 µM)
- MIC E. coli ATCC 25922, salinity 25‰ [14]: > 65 µg/mL
- MIC Pseudoalteromonas sp., salinity 25‰ (Pseudoalteromonas sp.): > 65 µg/mL
- MIC T. discolor, salinity 25‰ (Tenacibaculum discolor): > 65 µg/mL
- MIC V. harveyi ATCC 35084, salinity 0‰ [15]: 2.03 µg/mL (≈ 1.31 µM)
- MIC V. harveyi ATCC 35084, salinity 25‰ [15]: > 65 µg/mL
- requirement for acetic acid (precipitation in MHB) [16]: did not
SMILES: CC[C@@H](C)[C@@H](NC(=O)[C@@H](C)NC(=O)[C@@H](CCCNC(=N)N)NC(=O)[C@@H](Cc1c[nH]c2ccccc12)NC(=O)[C@@H](CCC(N)=O)NC(=O)[C@H](N)C(C)C)C(=O)N[C@H](CCCNC(=N)N)C(=O)N[C@@H](C(=O)N[C@H](CCCNC(=N)N)C(=O)N[C@@H](C(=O)N[C@@H](C(=O)N[C@H](CCCNC(=N)N)C(N)=O)[C@H](C)CC)C(C)C)C(C)C [DJK5] (H-[dV][dQ][dW][dR][dA][dI][dR][dV][dR][dV][dI][dR]-NH2; N-terminus and C-terminus assumed)
- reduction of bacterial infections in terrestrial organisms [8]: successfully reduced
